Assay results taken from patent US9758492B2, “IDO inhibitors” (Bristol-Myers Squibb Company, priority 2013, dated 2017).

Molecular target: IDO (Homo sapiens, UniProt P14902)
Test: LLE_IDO_ABS_DR (IDO assay)

Chain of IDO (P14902 whole entry): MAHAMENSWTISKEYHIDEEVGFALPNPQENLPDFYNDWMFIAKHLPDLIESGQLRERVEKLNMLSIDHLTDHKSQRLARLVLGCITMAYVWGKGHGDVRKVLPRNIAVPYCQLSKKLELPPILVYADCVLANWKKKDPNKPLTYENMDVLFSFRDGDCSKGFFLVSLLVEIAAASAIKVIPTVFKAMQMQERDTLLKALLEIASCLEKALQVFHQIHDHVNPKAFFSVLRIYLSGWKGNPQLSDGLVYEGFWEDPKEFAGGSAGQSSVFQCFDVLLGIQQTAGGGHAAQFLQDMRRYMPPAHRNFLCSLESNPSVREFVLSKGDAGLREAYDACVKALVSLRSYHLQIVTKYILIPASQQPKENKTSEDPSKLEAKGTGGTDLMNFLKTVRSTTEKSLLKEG

Row | IC50 [µM] | Compound
1 | 1.83 | CC(C)CN(CC(C)C)c1ccc(-c2ccccc2-c2nnn[nH]2)cc1NC(=O)Nc1ccccc1N1CCCCC1 [Example 270, 2-(4-(diisobutylamino)-2′-(1H-tetrazol-5-yl)-[1,1′-biphenyl]-3-yl)-3-(2-(piperidin-1-yl)phenyl)urea]
2 | 0.01 | Cc1ccc(NC(=O)Nc2cc(-c3ccccc3-c3nnn[nH]3)ccc2N(CCC(C)C(F)(F)F)CC(C)C)cc1 (centres unmarked) [Example 202, 1-(4-(isobutyl(4,4,4-trifluoro-3-methylbutyl)amino)-2′-(1H-tetrazol-5-yl)-[1,1′-biphenyl]-3-yl)-3-(p-tolyl)urea]
3 | 0.00731 | Cc1ccc(NC(=O)Nc2cc(-c3cc(F)ccc3C(=O)O)ccc2N(CCC(C)C(F)(F)F)CC(C)C)cc1 (centres unmarked) [Example 203, 5-fluoro-4′-(isobutyl (4,4,4-trifluoro-3-methylbutyl)amino)-3′-(3-(p-tolyl)ureido)-[1,1′-biphenyl]-2-carboxylic acid]
4 | 0.00474 | Cc1ccc(NC(=O)Nc2cc(-c3ccccc3-c3nnn[nH]3)ccc2N(CC(F)F)C2CCCCC2)cc1 [Example 194, 1-(4-(cyclohexyl(2,2-difluoroethyl)amino)-2′-(1H-tetrazol-5-yl)-[1,1′-biphenyl]-3-yl)-3-(p-tolyl)urea]
5 | 0.05 | Cc1ccc(NC(=O)Nc2cc(-c3ccccc3-c3nnn[nH]3)ccc2N(C)CC(C)C)cc1 [Example 179, 1-(4-(isobutyl(methyl)amino)-2′-(1H-tetrazol-5-yl)-[1,1′-biphenyl]-3-yl)-3-(p-tolyl)urea]
6 | 0.00403 | Cc1ccc(NC(=O)Nc2cc(-c3ccccc3-c3nnn[nH]3)ccc2N(CCC(F)(F)F)Cc2ccc(C(F)(F)F)cc2)cc1 [Example 329, 1-(2′-(1H-tetrazol-5-yl)-4-((4-(trifluoromethyl)benzyl)(3,3,3-trifluoropropyl)amino)-[1,1′-biphenyl]-3-yl)-3-(p-tolyl)urea]
7 | 0.00256 | CC(C)CN(c1cc(F)c(-c2cc(F)ccc2C(=O)O)cc1NC(=O)Nc1ccccc1F)C1CCCCC1 [Example 229, 4′-(cyclohexyl(isobutyl)ami-no)-2′,5-difluoro-5′-(3-(2-fluorophenyl)ureido) biphenyl-2-carboxylic acid]

The remaining lines, values behind:

Row | Compound | IC50 [µM]
8 | CCC1CCCCN1c1ccc(-c2ccccc2C(=O)O)cc1NC(=O)Nc1ccc(C)cc1 (centres unmarked) [Example 107, 4′-(2-ethylpiperidin-1-yl)-3′-(3-p-tolylureido)biphenyl-2-carboxylic acid] | 1.86
9 | CCCN(c1ccc(-c2ccccc2C(=O)O)cc1NC(=O)Nc1ccc(C)cc1)C1CCCC1 [Example 165, 4′-(cyclopentyl(propyl)amino)-3′-(3-p-tolylureido)biphenyl-2-carboxylic acid] | 0.01
10 | CC(C)CN(c1ccc(-c2ccccc2-c2nnn[nH]2)cc1NC(=O)Nc1ccccc1F)C(C)C [Example 153, 1-(2-fluorophenyl)-3-(4-(isobutyl (isopropyl)amino)-2′-(1H-tetrazol-5-yl)biphenyl-3-yl)urea] | 0.00516
11 | COc1ccc(-c2ccc(N(CC(C)C)CC(C)C)c(NC(=O)Nc3ccc(C)cc3)c2)c(-c2nnn[nH]2)c1 [Example 117, 1-(4-(diisobutylamino)-4′-methoxy-2′-(1H-tetrazol-5-yl)biphenyl-3-yl)-3-p-tolylurea] | 0.01
12 | Cc1ccc(NC(=O)Nc2cc(-c3ccc(F)cc3NS(=O)(=O)C(F)(F)F)ccc2N(CC(C)C)CC(C)C)cc1 [Example 81, N-(4′-(diisobutylamino)-4-fluoro-3′-(3-p-tolylureido)biphenyl-2-yl)-1,1,1-trifluoromethane-sulfonamide] | 0.27
13 | COc1ccc(C(=O)O)c(-c2ccc(N(CC(C)C)CC(C)C)c(NC(=O)Nc3ccc(C)cc3)c2)c1 [Example 128, 4′-(diisobutylamino)-5-methoxy-3′-(3-p-tolylureido)biphenyl-2-carboxylic acid] | 0.39
14 | Cc1ccc(NC(=O)Nc2cc(-c3ccccc3NS(=O)(=O)C(F)(F)F)ccc2N(CC(C)C)CC(C)C)cc1 [Example 4, N-(4′-(Diisobutylamino)-3′-(3-p-tolylureido)biphenyl-2-yl)-1,1,1-trifluoromethanesulfonamide] | 0.08
